Reference: the NIST ThermoML archive (doi:10.1016/j.jct.2010.11.012)
Numbers after ± are expanded uncertainties.

Assay: xn = mol fraction of the nth substance listed
Settings: Liquid, Bellows volumetry

CCCC [butane] + O=C=O
mass density [kg/m3]
Settings | 280 K | 300 K | 320 K | 340 K | 360 K | 380 K | 400 K | 420 K | 440 K
3000 kPa, x2 = 0.2322 | 630.31 ± 1.7 | – | – | – | – | – | – | – | –
5000 kPa, x2 = 0.2322 | 633.96 ± 1.7 | – | 575.82 ± 2 | – | – | – | – | – | –
5000 kPa, x2 = 0.4794 | 680.75 ± 1.6 | 639.52 ± 2.6 | – | – | – | – | – | – | –
5000 kPa, x2 = 0.715 | 743.91 ± 3.4 | – | – | – | – | – | – | – | –
10000 kPa, x2 = 0.2322 | 642.11 ± 1.7 | – | 589.62 ± 2.1 | – | 527.83 ± 2.8 | – | 446.86 ± 3.4 | – | –
10000 kPa, x2 = 0.4794 | 692.87 ± 2.1 | 657.02 ± 2.6 | 616.31 ± 3 | 569.54 ± 3.6 | 511.93 ± 4.4 | – | – | – | –
10000 kPa, x2 = 0.715 | 764.37 ± 3.4 | – | 634.09 ± 5.2 | – | – | – | – | – | –
20000 kPa, x2 = 0.2322 | 656.07 ± 1.7 | – | 611.12 ± 1.9 | – | 561.64 ± 2.2 | – | 507.96 ± 3 | – | 450.53 ± 2.6
20000 kPa, x2 = 0.4794 | 712.84 ± 2.1 | 682.52 ± 2.3 | 650.15 ± 2.6 | 616.43 ± 3.1 | 580.87 ± 3.8 | 542.77 ± 3.1 | 502.33 ± 3.5 | – | –
20000 kPa, x2 = 0.715 | 794.78 ± 3 | – | 700.42 ± 4.6 | – | 589.3 ± 4.7 | – | – | – | –
30000 kPa, x2 = 0.2322 | 667.86 ± 1.6 | – | 627.12 ± 1.7 | – | 584.81 ± 1.9 | – | 540.33 ± 2.1 | – | 495.88 ± 2.4
30000 kPa, x2 = 0.4794 | 728.81 ± 2 | 701.65 ± 2 | 674.04 ± 2.2 | 645.49 ± 2.4 | 616.95 ± 2.6 | 587.13 ± 2.9 | 556.87 ± 3.2 | 526.92 ± 2.7 | 497.45 ± 2.8
30000 kPa, x2 = 0.715 | 817.62 ± 2.6 | – | 738.09 ± 3.2 | – | 653.81 ± 4.3 | – | 566.01 ± 4 | – | –
40000 kPa, x2 = 0.2322 | 678.47 ± 1.6 | – | 640.44 ± 1.6 | – | 602.48 ± 1.7 | – | 563.25 ± 1.8 | – | 525.21 ± 1.9
40000 kPa, x2 = 0.4794 | 742.52 ± 1.9 | 717.56 ± 1.9 | 692.66 ± 2 | 667.35 ± 2.1 | 642.35 ± 2.2 | 616.84 ± 2.3 | 591.24 ± 2.4 | 566.28 ± 2.6 | 541.84 ± 2.7
40000 kPa, x2 = 0.715 | 836.27 ± 2.4 | – | 765.65 ± 2.8 | – | 694.03 ± 3.2 | – | 621.7 ± 3.8 | – | 554.08 ± 3.3
50000 kPa, x2 = 0.2322 | 687.34 ± 1.6 | – | 652.04 ± 1.6 | – | 616.98 ± 1.6 | – | 581.4 ± 1.6 | – | 547.37 ± 1.7
50000 kPa, x2 = 0.4794 | 754.67 ± 1.8 | 731.07 ± 1.8 | 708.18 ± 1.9 | 685.08 ± 1.9 | 662.49 ± 2 | 639.71 ± 2 | 616.85 ± 2.1 | 595.02 ± 2.2 | 573.48 ± 2.2
50000 kPa, x2 = 0.715 | 852 ± 2.3 | – | 787.84 ± 2.5 | – | 724.09 ± 2.8 | – | 660.78 ± 3 | – | 601.28 ± 3.2
60000 kPa, x2 = 0.2322 | 695.74 ± 1.8 | – | 662.33 ± 1.9 | – | 629.59 ± 2 | – | 596.43 ± 2.1 | – | 565.31 ± 2.2
60000 kPa, x2 = 0.4794 | 764.81 ± 2.2 | 742.9 ± 2.2 | 721.35 ± 2.3 | 700 ± 2.4 | 679.22 ± 2.5 | 658.27 ± 2.6 | 637.36 ± 2.7 | 617.32 ± 2.8 | 597.98 ± 2.9
60000 kPa, x2 = 0.715 | 866.13 ± 2.9 | – | 806.49 ± 3.2 | – | 747.95 ± 3.6 | – | 690.23 ± 4 | – | 637.06 ± 4.3
70000 kPa, x2 = 0.2322 | 703.24 ± 1.8 | – | 671.53 ± 1.8 | – | 640.64 ± 1.9 | – | 609.35 ± 1.9 | – | 580.32 ± 2
70000 kPa, x2 = 0.4794 | 774.33 ± 2.1 | 753.65 ± 2.2 | 733.06 ± 2.2 | 713.41 ± 2.3 | 693.75 ± 2.4 | 674.23 ± 2.4 | 654.78 ± 2.5 | 635.97 ± 2.5 | 618.26 ± 2.6
70000 kPa, x2 = 0.715 | 878.47 ± 2.8 | – | 822.63 ± 3 | – | 768.11 ± 3.3 | – | 714.95 ± 3.6 | – | 665.83 ± 3.8
80000 kPa, x2 = 0.2322 | 710.1 ± 1.7 | – | 679.91 ± 1.8 | – | 650.47 ± 1.8 | – | 620.59 ± 1.8 | – | 593.42 ± 1.9
80000 kPa, x2 = 0.4794 | 783.23 ± 2.1 | 763.35 ± 2.1 | 744.07 ± 2.2 | 724.94 ± 2.2 | 706.48 ± 2.2 | 687.97 ± 2.3 | 669.8 ± 2.3 | 652.07 ± 2.4 | 635.67 ± 2.5
80000 kPa, x2 = 0.715 | 890.87 ± 2.7 | – | 836.62 ± 2.9 | – | 785.74 ± 3 | – | 735.73 ± 3.2 | – | 689.85 ± 3.4
90000 kPa, x2 = 0.2322 | 716.71 ± 1.7 | – | 687.47 ± 1.7 | – | 659.56 ± 1.8 | – | 631 ± 1.8 | – | 605.1 ± 1.8
90000 kPa, x2 = 0.4794 | 791.49 ± 2 | 772.13 ± 2 | 753.75 ± 2.1 | 735.81 ± 2.1 | 717.86 ± 2.1 | 700.34 ± 2.2 | 682.95 ± 2.2 | 666.23 ± 2.2 | 651.02 ± 2.3
90000 kPa, x2 = 0.715 | 901.14 ± 2.6 | – | 849.86 ± 2.7 | – | 801.06 ± 2.9 | – | 753.9 ± 3 | – | 710.59 ± 3.1
100000 kPa, x2 = 0.2322 | 723.23 ± 3.3 | – | 694.73 ± 3.2 | – | 667.72 ± 3.1 | – | 640.36 ± 3 | – | 615.81 ± 3
100000 kPa, x2 = 0.4794 | 798.9 ± 3.6 | 780.58 ± 3.7 | 762.74 ± 3.5 | 745.33 ± 3.5 | 728.39 ± 3.5 | 711.49 ± 3.5 | 695.05 ± 3.4 | 678.91 ± 3.4 | 664.29 ± 3.3
100000 kPa, x2 = 0.715 | 910.69 ± 4.4 | – | 861.47 ± 4.2 | – | 815.17 ± 4.2 | – | 770.02 ± 4 | – | 728.79 ± 4
120000 kPa, x2 = 0.2322 | 734.32 ± 3.3 | – | 707.88 ± 3.2 | – | 683.01 ± 3.2 | – | 657.01 ± 3.1 | – | 634.32 ± 3
120000 kPa, x2 = 0.4794 | 812.9 ± 3.8 | 795.54 ± 3.7 | 778.9 ± 3.6 | 762.5 ± 3.6 | 747.06 ± 3.5 | 731.12 ± 3.5 | 716.06 ± 3.5 | 701.1 ± 3.4 | 687.84 ± 3.4
120000 kPa, x2 = 0.715 | 928.62 ± 4.4 | – | 882.45 ± 4.3 | – | 839.59 ± 4.2 | – | 797.97 ± 4.1 | – | 759.95 ± 4
140000 kPa, x2 = 0.2322 | 744.8 ± 3.4 | – | 719.63 ± 3.3 | – | 695.82 ± 3.2 | – | 671.62 ± 3.1 | – | 650.31 ± 3
140000 kPa, x2 = 0.4794 | 825.4 ± 3.8 | 809.12 ± 3.7 | 793 ± 3.7 | 777.74 ± 3.6 | 763.38 ± 3.6 | 748.2 ± 3.5 | 734.23 ± 3.5 | 719.99 ± 3.4 | 707.66 ± 3.4
140000 kPa, x2 = 0.715 | 944.48 ± 4.4 | – | 900.69 ± 4.3 | – | 861.07 ± 4.2 | – | 821.54 ± 4.1 | – | 786.09 ± 4
160000 kPa, x2 = 0.2322 | 754.11 ± 3.6 | – | 730.08 ± 3.5 | – | 707.43 ± 3.5 | – | 684.45 ± 3.5 | – | 664.25 ± 3.4
160000 kPa, x2 = 0.4794 | 836.77 ± 4.1 | 820.91 ± 4.1 | 805.87 ± 4.1 | 791.24 ± 4 | 777.86 ± 4 | 763.43 ± 4 | 749.98 ± 4 | 736.74 ± 4 | 724.96 ± 4
160000 kPa, x2 = 0.715 | 958.48 ± 5 | – | 917.22 ± 5 | – | 878.95 ± 4.9 | – | 841.99 ± 4.9 | – | 808.63 ± 4.9
180000 kPa, x2 = 0.2322 | 762.53 ± 3.6 | – | 739.97 ± 3.5 | – | 718.38 ± 3.5 | – | 696.37 ± 3.4 | – | 676.7 ± 3.4
180000 kPa, x2 = 0.4794 | 847.4 ± 4.1 | 832.12 ± 4.1 | 817.41 ± 4 | 803.57 ± 4 | 790.57 ± 4 | 776.93 ± 4 | 764.27 ± 4 | 751.63 ± 3.9 | 740.16 ± 3.9
180000 kPa, x2 = 0.715 | 971.36 ± 4.9 | – | 931.83 ± 4.9 | – | 895.71 ± 4.9 | – | 860.22 ± 4.8 | – | 828.38 ± 4.8
200000 kPa, x2 = 0.2322 | 770.7 ± 3.6 | – | 748.41 ± 3.6 | – | 727.81 ± 3.5 | – | 706.63 ± 3.5 | – | 688.15 ± 3.4
200000 kPa, x2 = 0.4794 | 856.48 ± 5.7 | 842.22 ± 4.1 | 828.26 ± 4.9 | 815.1 ± 4.1 | 802.28 ± 4.7 | 789.44 ± 4 | 777.01 ± 4.6 | 764.81 ± 4 | 754.38 ± 4.9
200000 kPa, x2 = 0.715 | 983.53 ± 5 | – | 945.52 ± 5 | – | 910.63 ± 4.9 | – | 876.67 ± 5 | – | 846.42 ± 4.8
